Laboratory results reported in patent US20100292255A1, “Therapeutic Compounds and Their Use in Treating Diseases and Disorders” (Myriad Pharmaceuticals, Inc., priority 2007, published 2010).

Target: T1, purified human Hsp90
T1 construct: purified human Hsp90 (Stressgen, SPP-770)
Assay: Hsp90 binding assay: displacement of BODIPY-labeled geldanamycin measured by fluorescence polarization
Settings: BODIPY-GM 10 nM, Hsp90 30 nM, overnight at room temperature; for IC50: read-out: GM displacement from purified Hsp90 measured by FP IC 50; for GM displacement from purified Hsp90 measured by FP Inhibition by 5 μM compd. (%): 5 μM compound
How it was run: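 Purified human Hsp90 at 30 nM and 10 nM BODIPY-GM tracer were incubated overnight at room temperature with compound in 2% DMSO. The buffer was 20 mM HEPES-KOH pH 7.3, 50 mM KCl, 5 mM MgCl2, 20 mM Na2MoO4, 2 mM DTT. Background-subtracted mP values read at 485/530 nm were normalized to DMSO wells to give % inhibition.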

IC50 | GM displacement from purified Hsp90 measured by FP Inhibition by 5 μM compd. (%) | Structure (SMILES)
195 nM | – | CC(C)C(=O)N1CCC(CCn2c(Sc3cc4c(cc3Br)OCCO4)nc3c(N)ncnc32)CC1 [compound 23, 8-[(7-Bromo-2,3-dihydro-1,4-benzodioxin-6-yl)thio]-9-[2-(1-isobutyrylpiperidin-4-yl)ethyl]-9H-purin-6-amine]
– | 28.0% | CC(C)C(=O)N1CCC(CCn2cnc(N)c3nc(Sc4cc5c(cc4Br)OCCO5)nc2-3)CC1 [compound 24, 8-[(7-Bromo-2,3-dihydro-1,4-benzodioxin-6-yl)thio]-342-(1-isobutyrylpiperidin-4-ypethyl]-3H-purin-6-amine]
110 nM | – | CC(C)C(=O)N1CCC(CCn2c(Sc3cc4c(cc3Br)OCO4)nc3c(N)ncnc32)CC1 [compound 25, 8-[(6-Bromo-1,3-benzodioxol-5-yl)thio]-9-[2-(1-isobutyrylpiperidin-4-yl)ethyl]-9H-purin-6-amine]
– | 55.0% | CC(C)C(=O)N1CCC(CCn2cnc(N)c3nc(Sc4cc5c(cc4Br)OCO5)nc2-3)CC1 [compound 26, 8-[(6-Bromo-1,3-benzodioxol-5-yl)thio]-3-[2-(1-isobutyrylpiperidin-4-yl)ethyl]-3H-purin-6-amine]
110 nM | – | CCN(CC)C(=O)CN1CCC(CCn2c(Sc3cc4c(cc3Br)OCCO4)nc3c(N)ncnc32)CC1 [compound 27, 2-[4-(2-{6-Amino-8-[(7-bromo-2,3-dihydro-1,4-benzodioxin-6-yl)thio]-9H-purin-9-yl}ethyl)piperidin-1-yl]-N,N-diethylacetamide]
– | 40.0% | CCN(CC)C(=O)CN1CCC(CCn2cnc(N)c3nc(Sc4cc5c(cc4Br)OCCO5)nc2-3)CC1 [compound 28, 2-[4-(2-{6-Amino-8-[(7-bromo-2,3-dihydro-1,4-benzodioxin-6-yl)thio]-3H-purin-3-yl}ethyl)piperidin-1-yl]-N,N-diethylacetamide]
1800 nM | – | Nc1ncnc2c1nc(Sc1cc3c(cc1Br)OCO3)n2CCn1c(=O)n2n(c1=O)CC=CC2 [compound 29, 2-(2-{6-Amino-8-[(6-bromo-1,3-benzodioxol-5-yl)thio]-9H-purin-9-yl}ethyl)-5,8-dihydro-1H-[1,2,4]triazolo[1,2-a]pyridazine-1,3(2H)-dione]
– | 23.0% | Nc1ncn(CCn2c(=O)n3n(c2=O)CC=CC3)c2nc(Sc3cc4c(cc3Br)OCO4)nc1-2 [compound 30, 2-(2-{6-Amino-8-[(6-bromo-1,3-benzodioxol-5-yl)thio]-3H-purin-3-yl}ethyl)-5,8-dihydro-1H-[1,2,4]triazolo[1,2-a]pyridazine-1,3(2H)-dione]
900 nM | – | Nc1ncnc2c1nc(Sc1cc3c(cc1Br)OCO3)n2CCCn1c(=O)n2n(c1=O)CC=CC2 [compound 31]
– | 9.0% | N#CCCN1CCC(CCn2cnc(N)c3nc(Sc4cc5c(cc4Br)OCO5)nc2-3)CC1 [compound 32]
300 nM | – | COCC(=O)N1CCC(CCn2c(Sc3cc4c(cc3C#N)OCO4)nc3c(N)ncnc32)CC1 [compound 33, 6-[(6-Amino-9-{2-[1-(methoxyacetyl)piperidin-4-yl]ethyl}-9H-purin-8-yl)thio]-1,3-benzodioxole-5-carbonitrile]
– | 88.0% | COCC(=O)N1CCC(CCn2cnc(N)c3nc(Sc4cc5c(cc4C#N)OCO5)nc2-3)CC1 [compound 34, 6-[(6-Amino-3-{2-[1-(methoxyacetyl)piperidin-4-yl]ethyl}-3H-purin-8-yl)thio]-1,3-benzodioxole-5-carbonitrile]
500 nM | – | CO[C@H](C)C(=O)N1CCC(CCn2c(Sc3cc4c(cc3C#N)OCO4)nc3c(N)ncnc32)CC1 [compound 35, 6-{[6-Amino-9-(2-{1-[(2R)-2-methoxypropanoyl]piperidin-4-yl}ethyl)-9H-purin-8-yl]thio}-1,3-benzodioxole-5-carbonitrile]
– | 35.0% | CO[C@H](C)C(=O)N1CCC(CCn2cnc(N)c3nc(Sc4cc5c(cc4C#N)OCO5)nc2-3)CC1 [compound 36, 6-{[6-Amino-3-(2-{1-[(2R)-2-methoxypropanoyl]piperidin-4-yl}ethyl)-3H-purin-8-yl]thio}-1,3-benzodioxole-5-carbonitrile]
550 nM | – | CO[C@@H](C)C(=O)N1CCC(CCn2c(Sc3cc4c(cc3C#N)OCO4)nc3c(N)ncnc32)CC1 [compound 37, 6-{[6-Amino-9-(2-{1-[(2S)-2-methoxypropanoyl]piperidin-4-yl}ethyl)-9H-purin-8-yl]thio}-1,3-benzodioxole-5-carbonitrile]
– | 36.0% | CO[C@@H](C)C(=O)N1CCC(CCn2cnc(N)c3nc(Sc4cc5c(cc4C#N)OCO5)nc2-3)CC1 [compound 38, 6-{[6-Amino-3-(2-{1-[(2S)-2-methoxypropanoyl]piperidin-4-yl}ethyl)-3H-purin-8-yl]thio}-1,3-benzodioxole-5-carbonitrile]

IC50 | GM displacement from purified Hsp90 measured by FP Inhibition by 5 μM compd. (%) | Structure (SMILES)
200 nM | – | N#Cc1cc2c(cc1Sc1nc3c(N)ncnc3n1CCC1CCN(C(=O)C3CC3(F)F)CC1)OCO2 (stereo not shown) [compound 39, 6-{[6-Amino-9-(2-{1-[(2,2-difluorocyclopropyl)carbonyl]piperidin-4-yl}ethyl)-9H-purin-8-yl]thio}-1,3-benzodioxole-5-carbonitrile]
– | 33.0% | N#Cc1cc2c(cc1Sc1nc3c(N)ncn(CCC4CCN(C(=O)C5CC5(F)F)CC4)c-3n1)OCO2 (stereo not shown) [compound 40, 6-{[6-Amino-3-(2-{1-[(2,2-difluorocyclopropyl)carbonyl]piperidin-4-yl}ethyl)-3H-purin-8-yl]thio}-1,3-benzodioxole-5-carbonitrile]
480 nM | – | COCCC(=O)N1CCC(CCn2c(Sc3cc4c(cc3C#N)OCO4)nc3c(N)ncnc32)CC1 [compound 41, 6-[(6-Amino-9-{2-[1-(3-methoxypropanoyl)piperidin-4-yl]ethyl}-9H-purin-8-yl)thio]-1,3-benzodioxole-5-carbonitrile]
500 nM | – | COCCOCC(=O)N1CCC(CCn2c(Sc3cc4c(cc3C#N)OCO4)nc3c(N)ncnc32)CC1 [compound 42, 6-{[6-Amino-9-(2-{1-[(2-methoxyethoxy)acetyl]piperidin-4-yl}ethyl)-9H-purin-8-yl]thio}-1,3-benzodioxole-5-carbonitrile]
320 nM | – | CO[C@@H](C)C(=O)N1CCC(CCn2c(Sc3cc4c(cc3C#N)OCCO4)nc3c(N)ncnc32)CC1 [compound 43, 7-{[6-Amino-9-(2-{1-[(2S)-2-methoxypropanoyl]piperidin-4-yl}ethyl)-9H-purin-8-yl]thio}-2,3-dihydro-1,4-benzodioxine-6-carbonitrile]
300 nM | – | CO[C@H](C)C(=O)N1CCC(CCn2c(Sc3cc4c(cc3C#N)OCCO4)nc3c(N)ncnc32)CC1 [compound 44, 7-{[6-Amino-9-(2-{1-[(2R)-2-methoxypropanoyl]piperidin-4-yl}ethyl)-9H-purin-8-yl]thio}-2,3-dihydro-1,4-benzodioxine-6-carbonitrile]
220 nM | – | COCC(=O)N1CCC(CCn2c(Sc3cc4c(cc3C#N)OCCO4)nc3c(N)ncnc32)CC1 [compound 45, 7-[(6-Amino-9-{2-[1-(methoxyacetyl)piperidin-4-yl]ethyl}-9H-purin-8-yl)thio]-2,3-dihydro-1,4-benzodioxine-6-carbonitrile]
700 nM | – | CS(=O)(=O)N1CCCCC1CCn1c(Sc2cc3c(cc2C#N)OCO3)nc2c(N)ncnc21 (stereo not shown) [compound 46, 6-[(6-Amino-9-{2-[1-(methylsulfonyl)piperidin-2-yl]ethyl}-9H-purin-8-yl)thio]-1,3-benzodioxole-5-carbonitrile]
90 nM | – | CS(=O)(=O)N1CCCC(CCn2c(Sc3cc4c(cc3C#N)OCO4)nc3c(N)ncnc32)C1 (stereo not shown) [compound 47, 6-[(6-Amino-9 {2-[1-(methylsulfonyl)piperidin-3-yl]ethyl}-9H-purin-8-yl)thio]-1,3-benzodioxole-5-carbonitrile]
– | 77.0% | CS(=O)(=O)N1CCCC(CCn2cnc(N)c3nc(Sc4cc5c(cc4C#N)OCO5)nc2-3)C1 (stereo not shown) [compound 48, 6-[(6-Amino-3-{2-[1-(methylsulfonyl)piperidin-3-yl]ethyl}-3H-purin-8-yl)thio]-1,3-benzodioxole-5-carbonitrile]
480 nM | – | CS(=O)(=O)N1CCC(CCn2c(Sc3cc4c(cc3C#N)OCO4)nc3c(N)ncnc32)CC1 [compound 49, 6-[(6-Amino-9-{2-[1-(methylsulfonyl)piperidin-4-yl]ethyl}-9H-purin-8-yl)thio]-1,3-benzodioxole-5-carbonitrile]
1200 nM | – | CCCN1CCCCC1CCn1c(Sc2cc3c(cc2C#N)OCO3)nc2c(N)ncnc21 (stereo not shown) [compound 50, 6-({6-Amino-9-[2-(1-propylpiperidin-2-yl)ethyl]-9H-purin-8-yl}thio)-1,3-benzodioxole-5-carbonitrile]
370 nM | – | CS(=O)(=O)N1CCCCC1CCn1c(Sc2cc3c(cc2C#N)OCCO3)nc2c(N)ncnc21 (stereo not shown) [compound 51, 7-[(6-Amino-9-{2-[1-(methylsulfonyl)piperidin-2-yl]ethyl}-9H-purin-8-yl)thio]-2,3-dihydro-1,4-benzodioxine-6-carbonitrile]
150 nM | – | CS(=O)(=O)N1CCCC(CCn2c(Sc3cc4c(cc3C#N)OCCO4)nc3c(N)ncnc32)C1 (stereo not shown) [compound 52, 7-[(6-Amino-9-{2-[1-(methylsulfonyl)piperidin-3-yl]ethyl}-9H-purin-8-yl)thio]-2,3-dihydro-1,4-benzodioxine-6-carbonitrile]
– | 60.0% | CS(=O)(=O)N1CCCC(CCn2cnc(N)c3nc(Sc4cc5c(cc4C#N)OCCO5)nc2-3)C1 (stereo not shown) [compound 53, 7-[(6-Amino-3-{2-[1-(methylsulfonyl)piperidin-3-yl]ethyl}-3H-purin-8-yl)thio]-2,3-dihydro-1,4-benzodioxine-6-carbonitrile]
